Paper PMC8865417, “Receptor Interaction Profiles of 4-Alkoxy-3,5-Dimethoxy-Phenethylamines (Mescaline Derivatives) and Related Amphetamines” (Frontiers in Pharmacology, 2022)
Like-named read-outs stand apart in the source and are kept apart here.

What was measured:
hDAT = target: T1, hDAT (Homo sapiens, UniProt Q01959); test: Radioligand binding at hDAT ([3H]WIN35,428)
T1 construct: expressed in transfected cells; host or cells: HEK 293 cells (membrane preparations)

humans = conditions: ref Shulgin and Shulgin 1991, cited from earlier work; for Duration of action: humans; for Duration of action / Human oral dose: Shulgin and Shulgin 1997, Trachsel et al., 2013; for Human oral dose: psychedelic dose in humans
rat TAAR1 = target: T2, rat TAAR1 (Rattus norvegicus, UniProt Q923Y9); test: Radioligand binding at rat TAAR1 ([3H]RO5166017)
T2 construct: expressed in transfected cells; host or cells: HEK 293 cells (membrane preparations)

hα1A adrenergic receptor = target: T3, hα1A adrenergic receptor (Homo sapiens, UniProt P35348); test: Radioligand binding at hα1A adrenergic receptor ([3H]prazosin); conditions: mean ± SD
T3 construct: expressed in transfected cells; host or cells: Chinese hamster ovary cells (membrane preparations)
T3 sequence (P35348 1-466): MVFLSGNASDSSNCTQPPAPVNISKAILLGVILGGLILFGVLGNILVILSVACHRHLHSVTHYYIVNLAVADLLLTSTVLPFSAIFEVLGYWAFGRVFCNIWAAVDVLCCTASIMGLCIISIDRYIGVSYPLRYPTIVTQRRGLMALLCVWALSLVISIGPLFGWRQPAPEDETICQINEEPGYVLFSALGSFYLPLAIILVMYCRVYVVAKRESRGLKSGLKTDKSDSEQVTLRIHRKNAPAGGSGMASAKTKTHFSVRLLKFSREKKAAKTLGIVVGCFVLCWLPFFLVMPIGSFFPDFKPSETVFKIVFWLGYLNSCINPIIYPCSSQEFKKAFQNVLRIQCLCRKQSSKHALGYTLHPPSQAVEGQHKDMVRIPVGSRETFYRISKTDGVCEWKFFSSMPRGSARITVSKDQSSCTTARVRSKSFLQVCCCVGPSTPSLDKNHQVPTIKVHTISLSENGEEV

human 5-HT2A receptor [1] = target: T4, human 5-HT2A receptor (Homo sapiens, UniProt P28223); set-up: expressed in transfected cells; host or cells: NIH-3T3 cells (mouse embryonic fibroblasts); conditions: read-out: h5-HT2A Activation potency EC50 ± SD; mescaline; ref Rickli et al. (2016); cited from earlier work
hSERT = target: T5, hSERT (Homo sapiens, UniProt P31645); test: Radioligand binding at hSERT ([3H]citalopram)
T5 construct: expressed in transfected cells; host or cells: HEK 293 cells (membrane preparations)

h5-HT1A receptor = target: T6, h5-HT1A receptor (Homo sapiens, UniProt P08908); test: Radioligand binding at h5-HT1A receptor ([3H]8-OH-DPAT)
T6 construct: expressed in transfected cells; host or cells: HEK 293 cells (membrane preparations)
T6 sequence (P08908 1-422): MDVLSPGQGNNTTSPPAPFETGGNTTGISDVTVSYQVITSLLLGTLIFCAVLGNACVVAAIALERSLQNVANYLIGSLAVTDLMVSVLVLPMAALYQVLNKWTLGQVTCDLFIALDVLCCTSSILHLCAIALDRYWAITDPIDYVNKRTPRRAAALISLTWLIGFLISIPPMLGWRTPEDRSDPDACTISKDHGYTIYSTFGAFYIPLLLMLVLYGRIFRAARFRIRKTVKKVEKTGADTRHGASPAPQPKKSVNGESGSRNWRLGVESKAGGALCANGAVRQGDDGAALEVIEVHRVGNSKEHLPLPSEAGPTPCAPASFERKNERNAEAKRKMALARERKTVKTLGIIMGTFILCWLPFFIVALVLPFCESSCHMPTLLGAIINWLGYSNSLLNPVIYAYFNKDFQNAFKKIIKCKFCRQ

hNET = target: T7, hNET (Homo sapiens, UniProt P23975); test: Radioligand binding at hNET (N-methyl-[3H]nisoxetine)
T7 construct: expressed in transfected cells; host or cells: HEK 293 cells (membrane preparations)

human 5-HT2B receptor = human 5-HT2B receptor (Homo sapiens, UniProt P41595); conditions: for EC50: h5-HT2B Activation potency EC50 ± SD, HEK 293 cells, calcium FLIPR, mean ± SD
mouse TAAR1 = target: T8, mouse TAAR1 (Mus musculus, UniProt Q923Y8); test: Radioligand binding at mouse TAAR1 ([3H]RO5166017)
T8 construct: expressed in transfected cells; host or cells: HEK 293 cells (membrane preparations)

hα2A adrenergic receptor = target: T9, hα2A adrenergic receptor (Homo sapiens, UniProt P08913); test: Radioligand binding at hα2A adrenergic receptor ([3H]rauwolscine)
T9 construct: expressed in transfected cells; host or cells: Chinese hamster lung cells (membrane preparations)
T9 sequence (P08913 1-465): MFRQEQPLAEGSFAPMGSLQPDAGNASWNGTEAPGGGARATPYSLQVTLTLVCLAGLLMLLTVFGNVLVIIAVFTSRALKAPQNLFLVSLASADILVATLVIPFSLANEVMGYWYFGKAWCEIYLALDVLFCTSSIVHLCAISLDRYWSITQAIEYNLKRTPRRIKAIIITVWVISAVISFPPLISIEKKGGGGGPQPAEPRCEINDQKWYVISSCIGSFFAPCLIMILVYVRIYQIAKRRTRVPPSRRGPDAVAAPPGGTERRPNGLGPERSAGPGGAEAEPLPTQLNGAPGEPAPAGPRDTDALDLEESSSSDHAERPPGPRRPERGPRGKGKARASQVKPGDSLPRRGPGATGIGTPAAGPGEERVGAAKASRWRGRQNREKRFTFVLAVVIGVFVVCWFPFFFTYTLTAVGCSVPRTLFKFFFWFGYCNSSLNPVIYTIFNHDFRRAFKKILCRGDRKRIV

h5-HT2A receptor [2] = target: T10, h5-HT2A receptor (Homo sapiens, UniProt P28223); test: Radioligand binding at h5-HT2A receptor ([3H]ketanserin); conditions: for Ki: h5-HT2A Receptor binding Ki ± SD, [3H]ketanserin, mean ± SD
T10 construct: expressed in transfected cells; host or cells: HEK 293 cells (membrane preparations)

h5-HT2C receptor = target: T11, h5-HT2C receptor (Homo sapiens, UniProt P28335); test: biochemical; assay type: binding; conditions: [3H]mesulergine; mean ± SD; read-out: h5-HT2C Receptor binding Ki ± SD
T11 construct: expressed in transfected cells; host or cells: HEK 293 cells (membrane preparations)
T11 sequence (P28335 33-458): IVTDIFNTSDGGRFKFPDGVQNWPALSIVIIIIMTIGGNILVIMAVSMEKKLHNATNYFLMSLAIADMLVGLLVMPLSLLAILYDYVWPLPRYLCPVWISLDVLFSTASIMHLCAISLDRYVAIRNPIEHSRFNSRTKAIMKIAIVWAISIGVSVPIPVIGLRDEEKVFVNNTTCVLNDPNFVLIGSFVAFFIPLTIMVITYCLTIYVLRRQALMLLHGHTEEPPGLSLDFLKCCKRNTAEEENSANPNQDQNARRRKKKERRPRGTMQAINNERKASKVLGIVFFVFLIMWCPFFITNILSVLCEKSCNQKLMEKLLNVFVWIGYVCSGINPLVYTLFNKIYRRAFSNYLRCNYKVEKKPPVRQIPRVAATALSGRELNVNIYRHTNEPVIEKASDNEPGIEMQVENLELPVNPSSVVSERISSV

[3] = target: T12, dopaminergic hD2 receptor (Homo sapiens, UniProt P14416); test: Radioligand binding at dopaminergic hD2 receptor ([3H]spiperone)
T12 construct: expressed in transfected cells; host or cells: HEK 293 cells (membrane preparations)

h5-HT2A receptor [4] = target: T10, h5-HT2A receptor; conditions: read-out: h5-HT2A Receptor binding Ki ± SD; cited from earlier work
head twitch response = tested on: head twitch response; set-up: method as in Halberstadt et al. (2019); conditions: ref Halberstadt et al. (2019); cited from earlier work
human 5-HT2A receptor [5] = target: T4, human 5-HT2A receptor; conditions: for Emax: NIH3T3, read-out: h5-HT2A Activation efficacy max ± SD, relative to 5-HT = 100%
human TAAR1 = target: T13, human TAAR1 (Homo sapiens, UniProt Q96RJ0); test: Activity at the human TAAR1 (cAMP assay, HEK 293 cells); assay type: cell-based
T13 construct: expressed in transfected cells; host or cells: HEK 293 cells
T13 sequence (Q96RJ0 1-339): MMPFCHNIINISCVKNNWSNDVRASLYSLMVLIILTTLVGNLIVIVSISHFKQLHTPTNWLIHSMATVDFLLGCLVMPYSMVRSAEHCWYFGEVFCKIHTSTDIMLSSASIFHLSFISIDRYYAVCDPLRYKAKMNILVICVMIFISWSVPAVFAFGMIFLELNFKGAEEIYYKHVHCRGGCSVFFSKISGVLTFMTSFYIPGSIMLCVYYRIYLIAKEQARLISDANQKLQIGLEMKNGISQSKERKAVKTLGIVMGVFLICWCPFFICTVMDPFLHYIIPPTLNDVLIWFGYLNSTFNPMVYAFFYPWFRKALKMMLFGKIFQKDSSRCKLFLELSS
Experimental: Once 80–90% confluency was reached, the cells were collected by removing the medium, washing with PBS and then adding 5 ml of trypsin/EDTA solution for 5 min at 37°C. Next, 45 ml of medium was added and the entire mixture was transferred into a falcon tube. The tube was then centrifuged at room temperature for 3 min at 900 revolutions per minute (rpm). Next, the supernatant was removed in order to resuspend the remaining cell pellet in fresh medium to 5 × 10^5 cells/ml. Hundred microliter of the cells was transferred into a 96-well plate ([…]; BIOCOAT 6640, Becton Dickinson, Allschwil, Switzerland) and incubated for 20 h at 37°C.
For the cAMP assay, the aspirated medium was replaced with 50 μl PBS without Ca^2+ and Mg^2+ ions. Using snap inversion, the PBS was extracted and the plate was gently tapped against tissue. Next, 90 μl of Krebs-Ringer Bicarbonate buffer (KRB, Sigma-Aldrich) containing 1 mM IBMX was added and incubated for 60 min at 37°C and 5% CO2/95% air. Each test compound was examined in duplicate in a concentration range between 300 pM and 30 μM. A standard curve with a range of cAMP concentrations (0.13 nM–10 μM) was created for each 96-well plate. Each experiment was accompanied with a reference plate that included RO5256390, β-phenylethylamine and p-tyramine. The cells were exposed to either 30 μl of compound solution, 30 μl of β-phenylethylamine (as maximal response), or a basal control in PBS (containing 1 mM IBMX) for 40 min at 37°C. Next, under forceful shaking using black lids, the cells were exposed to 50 μl of 3× detection mix solution (composed of Ru-cAMP Alexa700 anti-cAMP antibody and lysis buffer) for 120 min at room temperature. Using the NanoScan reader (Innovate Optische Messtechnik, Berlin, Germany; 456 nm excitation wavelength; 630 and 700 nm emission wavelengths), the fluorescence was examined and the FRET signal was determined using the following equation; FRET (700 nm)- P × FRET (630 nm), where P = Ru (700 nm)/Ru (630 nm).

Chain of human 5-HT2B receptor (P41595 whole entry): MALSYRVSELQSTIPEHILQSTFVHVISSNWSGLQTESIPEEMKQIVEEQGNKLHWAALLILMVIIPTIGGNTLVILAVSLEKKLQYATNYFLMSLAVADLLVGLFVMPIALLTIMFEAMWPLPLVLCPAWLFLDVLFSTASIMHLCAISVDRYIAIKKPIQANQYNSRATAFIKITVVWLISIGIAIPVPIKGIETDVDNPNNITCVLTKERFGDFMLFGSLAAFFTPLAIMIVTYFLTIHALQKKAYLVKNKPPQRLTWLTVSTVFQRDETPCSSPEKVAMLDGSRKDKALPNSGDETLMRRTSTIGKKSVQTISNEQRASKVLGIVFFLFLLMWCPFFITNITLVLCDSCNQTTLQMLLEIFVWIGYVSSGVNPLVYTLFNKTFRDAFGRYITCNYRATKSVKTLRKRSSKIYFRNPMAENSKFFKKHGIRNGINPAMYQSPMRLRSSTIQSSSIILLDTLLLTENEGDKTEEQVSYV
T4 sequence (P28223 whole entry): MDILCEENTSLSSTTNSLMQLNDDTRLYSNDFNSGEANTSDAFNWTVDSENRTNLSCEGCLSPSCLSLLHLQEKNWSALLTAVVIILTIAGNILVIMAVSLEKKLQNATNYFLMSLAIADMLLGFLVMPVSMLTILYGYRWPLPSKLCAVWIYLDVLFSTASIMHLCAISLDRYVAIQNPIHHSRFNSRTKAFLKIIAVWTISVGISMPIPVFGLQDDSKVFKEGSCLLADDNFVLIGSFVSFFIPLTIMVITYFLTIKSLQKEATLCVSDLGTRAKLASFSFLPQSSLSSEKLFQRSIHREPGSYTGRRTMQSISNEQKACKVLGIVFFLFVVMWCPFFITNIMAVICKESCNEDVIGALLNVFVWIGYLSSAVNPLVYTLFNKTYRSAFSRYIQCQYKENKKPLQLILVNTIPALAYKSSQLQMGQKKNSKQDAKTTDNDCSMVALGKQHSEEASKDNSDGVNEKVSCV
T10 sequence (P28223 whole entry): as above
T2 sequence (Q923Y9 whole entry): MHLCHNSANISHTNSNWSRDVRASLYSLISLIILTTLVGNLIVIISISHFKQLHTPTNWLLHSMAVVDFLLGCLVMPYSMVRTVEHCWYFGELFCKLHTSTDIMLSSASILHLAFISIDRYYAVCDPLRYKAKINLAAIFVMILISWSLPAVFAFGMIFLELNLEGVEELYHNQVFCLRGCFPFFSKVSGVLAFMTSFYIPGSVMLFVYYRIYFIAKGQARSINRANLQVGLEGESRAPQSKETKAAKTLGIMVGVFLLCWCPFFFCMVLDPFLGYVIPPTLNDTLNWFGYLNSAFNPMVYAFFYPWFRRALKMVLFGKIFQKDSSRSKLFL
T1 sequence (Q01959 whole entry): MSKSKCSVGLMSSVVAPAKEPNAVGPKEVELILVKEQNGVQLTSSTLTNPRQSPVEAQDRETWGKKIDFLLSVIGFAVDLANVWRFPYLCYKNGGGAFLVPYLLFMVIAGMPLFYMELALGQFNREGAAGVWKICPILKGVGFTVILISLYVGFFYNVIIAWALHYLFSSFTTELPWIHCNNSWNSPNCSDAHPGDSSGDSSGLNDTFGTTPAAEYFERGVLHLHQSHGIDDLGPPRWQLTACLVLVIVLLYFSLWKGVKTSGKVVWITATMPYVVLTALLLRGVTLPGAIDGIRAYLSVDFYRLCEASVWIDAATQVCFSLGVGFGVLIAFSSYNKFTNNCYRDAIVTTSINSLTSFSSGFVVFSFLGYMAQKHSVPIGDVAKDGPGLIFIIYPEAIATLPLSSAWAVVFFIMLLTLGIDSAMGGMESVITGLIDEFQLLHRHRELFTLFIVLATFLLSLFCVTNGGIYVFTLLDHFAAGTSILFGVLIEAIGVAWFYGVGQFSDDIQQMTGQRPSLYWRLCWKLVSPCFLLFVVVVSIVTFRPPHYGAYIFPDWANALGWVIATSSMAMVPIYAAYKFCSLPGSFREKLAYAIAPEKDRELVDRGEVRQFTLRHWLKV
T7 sequence (P23975 whole entry): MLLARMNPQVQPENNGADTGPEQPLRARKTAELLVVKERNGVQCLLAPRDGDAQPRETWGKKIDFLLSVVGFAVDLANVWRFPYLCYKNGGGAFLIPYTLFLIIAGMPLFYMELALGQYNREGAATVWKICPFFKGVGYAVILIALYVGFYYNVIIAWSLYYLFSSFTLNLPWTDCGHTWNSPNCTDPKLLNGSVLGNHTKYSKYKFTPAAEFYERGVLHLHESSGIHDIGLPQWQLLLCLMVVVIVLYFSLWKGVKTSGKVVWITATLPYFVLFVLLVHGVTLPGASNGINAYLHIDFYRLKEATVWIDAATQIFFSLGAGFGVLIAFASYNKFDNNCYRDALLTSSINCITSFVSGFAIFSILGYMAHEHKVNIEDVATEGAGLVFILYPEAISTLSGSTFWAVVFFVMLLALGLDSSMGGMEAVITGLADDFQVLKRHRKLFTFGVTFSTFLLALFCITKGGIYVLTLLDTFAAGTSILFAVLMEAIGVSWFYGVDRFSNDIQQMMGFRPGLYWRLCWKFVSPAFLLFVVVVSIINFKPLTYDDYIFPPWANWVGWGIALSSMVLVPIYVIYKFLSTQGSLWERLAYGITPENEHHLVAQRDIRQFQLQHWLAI
T8 sequence (Q923Y8 whole entry): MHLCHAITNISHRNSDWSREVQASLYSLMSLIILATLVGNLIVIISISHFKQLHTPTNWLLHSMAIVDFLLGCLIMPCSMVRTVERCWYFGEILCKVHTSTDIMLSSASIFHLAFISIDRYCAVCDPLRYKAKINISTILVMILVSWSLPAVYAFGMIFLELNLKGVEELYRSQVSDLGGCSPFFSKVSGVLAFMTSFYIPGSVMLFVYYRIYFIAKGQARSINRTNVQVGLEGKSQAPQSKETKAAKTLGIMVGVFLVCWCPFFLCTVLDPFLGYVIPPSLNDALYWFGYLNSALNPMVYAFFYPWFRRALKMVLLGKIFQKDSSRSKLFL
T12 sequence (P14416 whole entry): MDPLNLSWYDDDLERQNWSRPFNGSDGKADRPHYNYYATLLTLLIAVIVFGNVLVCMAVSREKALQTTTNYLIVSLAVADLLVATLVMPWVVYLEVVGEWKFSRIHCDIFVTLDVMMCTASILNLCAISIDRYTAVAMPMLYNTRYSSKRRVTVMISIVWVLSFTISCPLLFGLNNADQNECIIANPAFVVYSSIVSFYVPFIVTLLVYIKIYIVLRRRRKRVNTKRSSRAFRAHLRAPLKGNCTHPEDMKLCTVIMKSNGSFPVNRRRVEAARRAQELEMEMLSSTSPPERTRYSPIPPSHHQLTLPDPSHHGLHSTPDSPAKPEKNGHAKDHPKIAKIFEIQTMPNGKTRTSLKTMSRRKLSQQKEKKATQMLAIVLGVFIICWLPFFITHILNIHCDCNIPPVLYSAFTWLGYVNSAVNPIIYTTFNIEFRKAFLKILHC
T5 sequence (P31645 whole entry): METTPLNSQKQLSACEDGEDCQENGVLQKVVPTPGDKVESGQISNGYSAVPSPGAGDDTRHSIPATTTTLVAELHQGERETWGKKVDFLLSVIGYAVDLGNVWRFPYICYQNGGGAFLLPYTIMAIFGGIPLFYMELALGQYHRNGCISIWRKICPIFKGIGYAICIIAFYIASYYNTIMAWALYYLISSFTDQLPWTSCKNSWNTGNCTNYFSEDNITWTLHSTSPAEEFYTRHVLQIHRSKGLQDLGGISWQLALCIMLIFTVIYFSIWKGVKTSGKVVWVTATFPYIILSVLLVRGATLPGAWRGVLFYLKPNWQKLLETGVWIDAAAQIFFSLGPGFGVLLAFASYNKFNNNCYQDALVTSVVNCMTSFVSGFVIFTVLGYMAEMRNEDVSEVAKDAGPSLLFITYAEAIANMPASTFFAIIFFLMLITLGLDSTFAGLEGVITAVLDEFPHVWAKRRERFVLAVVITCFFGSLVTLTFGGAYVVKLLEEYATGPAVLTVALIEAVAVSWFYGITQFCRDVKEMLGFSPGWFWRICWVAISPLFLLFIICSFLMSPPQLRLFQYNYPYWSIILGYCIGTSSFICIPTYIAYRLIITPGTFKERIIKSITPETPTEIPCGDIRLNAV

| Compound | Ki (hDAT) [µM] | Psychedelic / active dose in humans (humans) [mg] | Ki (rat TAAR1) [µM] | Ki (hα1A adrenergic receptor) [µM] | Ki (hSERT) [µM] | Ki (h5-HT1A receptor) [µM] | Ki (hNET) [µM] | EC50 (human 5-HT2B receptor) [µM] | Ki (mouse TAAR1) [µM] | Ki (hα2A adrenergic receptor) [µM] | Ki (h5-HT2A receptor [2]) [µM] | Ki (h5-HT2C receptor) [µM] | Ki [3] [µM] | EC50 (human 5-HT2A receptor [5]) [µM] | Emax (human 5-HT2A receptor [5]) [%] | other results |
| --- | --- | --- | --- | --- | --- | --- | --- | --- | --- | --- | --- | --- | --- | --- | --- | --- |
| COc1cc(CCN)cc(OC)c1OC [compound 5, 3,4,5-trimethoxyphenethylamine] | > 8.5 | 180 to 360 | 3 | > 8.7 | > 7.5 | 6.7 | > 9.7 | > 10 | > 4.2 | 2 | 9.4 | 9.9 | > 6.3 |  |  | Duration of action (humans; listed as mescaline): 8 to 12 h; Human oral dose (humans): 180 to 360 mg; EC50 (human 5-HT2A receptor [1]): 10 µM |
| COc1cc(CCN)c(OC)cc1Br [2C-B] |  |  |  |  |  |  |  |  |  |  |  |  |  |  |  | Ki (h5-HT2A receptor [4]): 0.0069 ± 0.0018 µM |
| CCOc1c(OC)cc(CC(C)N)cc1OC (stereo not drawn) [compound 21, 3,5-dimethoxy-4-ethoxyamphetamine] | > 8.5 |  | > 4.7 | > 8.7 | > 7.5 | > 5.6 | > 9.7 | 0.095 ± 0.13 | > 4.2 | > 5.1 | 3.7 | 4.9 | > 6.3 | 0.16 ± 0.05 | 86 to 102 | Head twitch response (head twitch response): induced a head twitch response with almost identical potency; Emax (human 5-HT2B receptor; HEK293, read-out: h5-HT2B Activation efficacy max ± SD, relative to 5-HT = 100%): 18 to 29%; Selectivity 5-HT2A vs. 5-HT2C (h5-HT2A receptor [2]; binding ratio): 1.3 |
| COc1cc(CC(C)N)cc(OC)c1OC (stereo not drawn) [compound 6, 3,4,5-trimethoxyamphetamine] | > 8.5 | 100 to 200 | 3.2 | > 8.7 | > 7.5 | > 5.6 | > 9.7 | > 10 | 1.8 | 4.03 | > 12 |  | > 6.3 | 1.7 ± 0.4 | 40 to 73 | Duration of action (humans): 6 to 8 h; Human oral dose (humans; listed as TMA): 100 to 250 mg; EC50 (human TAAR1): > 10 µM |
